# Like-named read-outs stand apart in the source and are kept apart here.
# Tests used:
# FGFR1 = FGFR1 (Homo sapiens, UniProt P11362); assay: Z'-LYTE SelectScreen biochemical kinase assay FGFR1
# Text: (§1) Thermo Fisher Scientific SelectScreen™ Biochemical Kinase Profiling Service Z′-LYTE™ Screening Protocol and Assay Conditions Assay Theory
# (§2) The […] biochemical assay employs a fluorescence-based, coupled-enzyme format and is based on the differential sensitivity of phosphorylated and non-phosphorylated peptides to proteolytic cleavage. The peptide substrate is labeled with two fluorophores—one at each end—that make up a FRET pair. In the primary reaction, the kinase transfers the gamma-phosphate of ATP to a single tyrosine, serine or threonine residue in a synthetic FRET-peptide. In the secondary reaction, a site-specific protease recognizes and cleaves non-phosphorylated FRET-peptides. Phosphorylation of FRET-peptides suppresses cleavage by the Development Reagent. Cleavage disrupts FRET between the donor (i.e., coumarin) and acceptor (i.e., fluorescein) fluorophores on the FRET-peptide, whereas uncleaved, phosphorylated FRET-peptides maintain FRET. A ratiometric method, which calculates the ratio (Emission Ratio=Coumarin emission (445 nm)/Fluorescein emission (520 nm)) of donor emission to acceptor emission after excitation of the donor fluorophore at 400 nm, is used to quantitate reaction progress, as shown in the equation below. A significant benefit of this ratiometric method for quantitating reaction progress is the elimination of well-to-well variations in FRET-peptide concentration and signal intensities. As a result, the assay yields very high Z′-factor values (>0.7) at a low percent phosphorylation. Both cleaved and uncleaved FRET-peptides contribute to the fluorescence signals and therefore to the Emission Ratio. The extent of phosphorylation of the FRET-peptide can be calculated from the Emission Ratio. The Emission Ratio will remain low if the FRET-peptide is phosphorylated (i.e., no kinase inhibition) and will be high if the FRET-peptide is non-phosphorylated (i.e., kinase inhibition).
# (§3) The Test Compounds are screened in 1% DMSO (final) in the well. For 10 point titrations, 3-fold serial dilutions are conducted from the starting concentration of the customer's choosing.
# (§4) All Peptide/Kinase Mixtures are diluted to a 2× working concentration in the appropriate Kinase Buffer (see section Kinase Specific Assay Conditions for a complete description).
# (§5) All ATP Solutions are diluted to a 4× working concentration in Kinase Buffer (50 mM HEPES pH 7.5, 0.01% BRIJ-35, 10 mM MgCl2, 1 mM EGTA). ATP Km apparent is previously determined using a Z″-LYTE assay.
# (§6) The Development Reagent is diluted in Development Buffer (see section Kinase-Specific Assay Conditions—Direct and Cascade for a complete description).
# (§7) Bar-coded Corning, low volume NBS, black 384-well plate (Corning Cat. #4514) • 1. 100 nL—100× Test Compound in 100% DMSO • 2. 2.4 μL—Kinase buffer • 3. 5 μL—2× Peptide/Kinase Mixture • 4. 2.5 μL—4×ATP Solution • 5. 30—second plate shake • 6. 60—minute Kinase Reaction incubation at room temperature • 7. 5 μL—Development Reagent Solution • 8. 30—second plate shake • 9. 60—minute Development Reaction incubation at room temperature • 10. Read on fluorescence plate reader and analyze the data Z′-LYTE Assay Controls
# (§8) SelectScreen Kinase Profiling Service uses XLfit from IDBS. The dose response curve is curve fit to model number 205 (sigmoidal dose-response model).
# The 2×FGFR1/Tyr 04 mixture is prepared in 50 mM HEPES pH 7.5, 0.01% BRIJ-35, 10 mM MgCl2, 4 mM MnCl2, 1 mM EGTA, 2 mM DTT. The final 10 μL Kinase Reaction consists of 0.44-2.45 ng FGFR1 and 2 μM Tyr 04 in 50 mM HEPES pH 7.5, 0.01% BRIJ-35, 10 mM MgCl2, 2 mM MnCl2, 1 mM EGTA, 1 mM DTT. After the 1 hour Kinase Reaction incubation, 5 μL of a 1:64 dilution of Development Reagent B is added.
# MAP4K2 (GCK) = target: T1, MAP4K2 (GCK) (Homo sapiens, UniProt Q12851); assay: Z'-LYTE SelectScreen biochemical kinase assay MAP4K2 (GCK)
# T1 sequence (Q12851 1-820): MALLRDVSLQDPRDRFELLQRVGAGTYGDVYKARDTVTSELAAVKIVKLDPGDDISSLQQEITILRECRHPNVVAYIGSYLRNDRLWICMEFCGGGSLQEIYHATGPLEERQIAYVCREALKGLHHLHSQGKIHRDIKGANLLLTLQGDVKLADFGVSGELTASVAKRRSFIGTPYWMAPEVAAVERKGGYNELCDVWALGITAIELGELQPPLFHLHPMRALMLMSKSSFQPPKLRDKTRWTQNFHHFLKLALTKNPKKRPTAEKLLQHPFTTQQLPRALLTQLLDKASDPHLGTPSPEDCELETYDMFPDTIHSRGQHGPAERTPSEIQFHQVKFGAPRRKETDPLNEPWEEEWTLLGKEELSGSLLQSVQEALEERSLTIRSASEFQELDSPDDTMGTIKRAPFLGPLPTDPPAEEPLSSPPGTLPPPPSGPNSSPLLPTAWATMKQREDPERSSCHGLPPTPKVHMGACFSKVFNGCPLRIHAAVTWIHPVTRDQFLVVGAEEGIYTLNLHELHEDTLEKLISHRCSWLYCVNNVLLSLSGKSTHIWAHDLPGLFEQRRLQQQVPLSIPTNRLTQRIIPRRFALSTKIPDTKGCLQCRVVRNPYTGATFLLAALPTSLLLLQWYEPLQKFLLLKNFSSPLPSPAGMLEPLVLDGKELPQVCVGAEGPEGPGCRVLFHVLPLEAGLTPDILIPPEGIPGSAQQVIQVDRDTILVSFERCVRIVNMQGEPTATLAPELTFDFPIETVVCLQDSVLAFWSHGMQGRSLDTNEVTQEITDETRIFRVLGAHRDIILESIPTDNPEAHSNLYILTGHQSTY
# Text: as §1, §2, §3, §4, §5, §6, §7, §8
# The 2×MAP4K2 (GCK)/Ser/Thr 07 mixture is prepared in 50 mM HEPES pH 7.5, 0.01% BRIJ-35, 10 mM MgCl2, 1 mM EGTA. The final 10 μL Kinase Reaction consists of 0.11-3 ng MAP4K2 (GCK) and 2 μM Ser/Thr 07 in 50 mM HEPES pH 7.5, 0.01% BRIJ-35, 10 mM MgCl2, 1 mM EGTA. After the 1 hour Kinase Reaction incubation, 5 μL of a 1:45000 dilution of Development Reagent A is added.
# [1] = 10 μmolar compound concentration, ATP at Km app, read-out: FGFR1 inhibition
# [2] = 10 μmolar compound concentration, ATP at Km app, read-out: MAP4K2 (GCK) inhibition
# [3] = read-out: % Inhibition mean FGFR1
# [4] = read-out: % Inhibition mean MAP4K2 (GCK)
# FGFR1, sequence (P11362 22-822): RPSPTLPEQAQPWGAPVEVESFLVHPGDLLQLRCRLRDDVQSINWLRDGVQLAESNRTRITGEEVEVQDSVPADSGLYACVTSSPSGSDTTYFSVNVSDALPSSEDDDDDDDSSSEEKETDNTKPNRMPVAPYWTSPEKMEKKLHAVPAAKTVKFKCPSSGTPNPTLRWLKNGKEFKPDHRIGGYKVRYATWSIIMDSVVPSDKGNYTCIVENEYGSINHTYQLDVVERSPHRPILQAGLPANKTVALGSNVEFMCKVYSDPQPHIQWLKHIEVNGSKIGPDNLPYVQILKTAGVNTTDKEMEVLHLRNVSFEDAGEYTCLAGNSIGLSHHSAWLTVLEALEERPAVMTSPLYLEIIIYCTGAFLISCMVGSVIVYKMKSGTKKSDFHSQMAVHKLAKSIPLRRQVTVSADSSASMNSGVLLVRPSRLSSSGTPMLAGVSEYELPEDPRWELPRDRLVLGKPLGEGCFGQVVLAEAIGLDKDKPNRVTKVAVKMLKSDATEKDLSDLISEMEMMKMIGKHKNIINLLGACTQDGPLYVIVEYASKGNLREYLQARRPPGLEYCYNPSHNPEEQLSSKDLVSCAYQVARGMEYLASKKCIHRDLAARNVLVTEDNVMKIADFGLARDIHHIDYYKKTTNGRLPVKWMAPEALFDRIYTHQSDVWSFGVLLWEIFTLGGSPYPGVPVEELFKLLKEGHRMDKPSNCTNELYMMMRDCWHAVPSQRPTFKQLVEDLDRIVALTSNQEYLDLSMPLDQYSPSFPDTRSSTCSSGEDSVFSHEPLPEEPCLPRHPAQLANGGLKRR
Compound,inhibition at 10 µM (FGFR1; [1]),inhibition at 10 µM (FGFR1; read-out: % Inhibition mean),inhibition at 10 µM (MAP4K2 (GCK); [2]),inhibition at 10 µM (MAP4K2 (GCK); read-out: % Inhibition mean),inhibition at 10 µM (FGFR1; [3]),inhibition at 10 µM (MAP4K2 (GCK); [4])
"CC1(C)C(=O)Nc2ccc(Nc3nc4c(-c5cccc(F)c5)cccn4n3)cc21 [Cpd. 263 in WO09155551, reference compound]",> 80%,99%,> 80%,98%,,
"Fc1cccc(-c2cccn3nc(Nc4ccc5[nH]cnc5c4)nc23)c1 [Cpd. 293 in WO09155551, reference compound]",> 80%,93%,> 80%,94%,,
"CC1(C)NC(=O)c2ccc(Nc3nc4c(-c5cccc(F)c5)cccn4n3)cc21 [Cpd. 302 in WO09155551, reference compound]",> 80%,97%,> 80%,99%,,
"Cc1cc(F)ccc1-c1cccn2nc(Nc3ccc4c(cnn4C)c3)nc12 [Example 9, [8-(4-fluoro-2-methyl-phenyl)-[1,2,4]triazolo[1,5-a]pyridine-2-yl]-(1-methyl-1H-indazol-5-yl)-amine]",< 40%,,40 to 80%,,35%,43%
"Cc1cc(F)ccc1-c1cccn2nc(NC3CCc4c(cnn4C)C3)nc12 (stereo not drawn) [Example 10, [8-(4-fluoro-2-methyl-phenyl)-[1,2,4]triazolo[1,5-a]pyridine-2-yl]-(1-methyl-4,5,6,7-tetrahydro-1H-indazol-5-yl)-amine]",< 40%,,< 40%,,15%,8%
"Cc1cc(F)ccc1-c1cccn2nc(NC3CCc4cnn(C)c4C3)nc12 (stereo not drawn) [Example 40, [8-(4-Fluoro-2-methyl-phenyl)-[1,2,4]triazolo[1,5-a]pyridine-2-yl]-(1-methyl-4,5,6,7-tetrahydro-1H-indazol-6-yl)-amine]",< 40%,,< 40%,,27%,13%
"CCn1ncc2c1CCC(Nc1nc3c(-c4ccc(F)cc4C)cccn3n1)C2 (stereo not drawn) [Example 42, (1-Ethyl-4,5,6,7-tetrahydro-1H-indazol-5-yl)-[8-(4-fluoro-2-methyl-phenyl)-[1,2,4]triazolo[1,5-a]pyridine-2-yl]-amine]",< 40%,,< 40%,,16%,21%
"CCCn1ncc2c1CCC(Nc1nc3c(-c4ccc(F)cc4C)cccn3n1)C2 (stereo not drawn) [Example 43, [8-(4-fluoro-2-methyl-phenyl)-[1,2,4]triazolo[1,5-a]pyridine-2-yl]-(1-propyl-4,5,6,7-tetrahydro-1H-indazol-5-yl)-amine]",< 40%,,< 40%,,15%,9%
"Cc1cc(F)ccc1-c1cccn2nc(NC3CCc4c(cnn4C(C)C)C3)nc12 (stereo not drawn) [Example 44, [8-(4-fluoro-2-methyl-phenyl)-[1,2,4]triazolo[1,5-a]pyridine-2-yl]-(1-isopropyl-4,5,6,7-tetrahydro-1H-indazol-5-yl)-amine]",< 40%,,< 40%,,20%,26%
"Cc1cc(F)ccc1-c1cccn2nc(NC3CCc4c(cnn4CC(C)C)C3)nc12 (stereo not drawn) [Example 45, [8-(4-fluoro-2-methyl-phenyl)-[1,2,4]triazolo[1,5-a]pyridine-2-yl]-(1-isobutyl-4,5,6,7-tetrahydro-1H-indazol-5-yl)-amine]",< 40%,,< 40%,,9%,24%
"CCCCn1ncc2c1CCC(Nc1nc3c(-c4ccc(F)cc4C)cccn3n1)C2 (stereo not drawn) [Example 46, [8-(4-fluoro-2-methyl-phenyl)-[1,2,4]triazolo[1,5-a]pyridine-2-yl]-(1-butyl-4,5,6,7-tetrahydro-1H-indazol-5-yl)-amine]",< 40%,,< 40%,,21%,19%
"CCCCCn1ncc2c1CCC(Nc1nc3c(-c4ccc(F)cc4C)cccn3n1)C2 (stereo not drawn) [Example 47, [8-(4-fluoro-2-methyl-phenyl)-[1,2,4]triazolo[1,5-a]pyridine-2-yl]-(1-pentyl-4,5,6,7-tetrahydro-1H-indazol-5-yl)-amine]",< 40%,,< 40%,,21%,11%
"CCn1nc(Cl)c2c1CCC(Nc1nc3c(-c4ccc(F)cc4C)cccn3n1)C2 (stereo not drawn) [Example 48, (3-Chloro-1-ethyl-4,5,6,7-tetrahydro-1H-indazol-5-yl)-[8-(4-fluoro-2-methyl-phenyl)-[1,2,4]triazolo[1,5-a]pyridine-2-yl]-amine]",< 40%,,< 40%,,18%,16%
"CCn1ncc2c1C(C)CC(Nc1nc3c(-c4cc(F)c(F)c(F)c4)cccn3n1)C2 (stereo not drawn) [Example 49, (1-Ethyl-7-methyl-4,5,6,7-tetrahydro-1H-indazol-5-yl)-[8-(3,4,5-trifluoro-phenyl)-[1,2,4]triazolo[1,5-a]pyridine-2-yl]-amine]",< 40%,,< 40%,,9%,17%
"CCn1nnc2c1CCC(Nc1nc3c(-c4ccc(F)cc4C)cccn3n1)C2 (stereo not drawn) [Example 51, (1-Ethyl-4,5,6,7-tetrahydro-1H-benzotriazol-5-yl)-[8-(4-fluoro-2-methyl-phenyl)-[1,2,4]triazolo[1,5-a]pyridine-2-yl]-amine]",< 40%,,< 40%,,5%,22%

# Reference: patent US11339161B2, “Triazolo pyridines as modulators of gamma-secretase” (Boehringer Ingelheim International GmbH, priority 2017, dated 2022)
